Measured values from patent publication US20070049593A1 (priority 2004, published 2007).
Counter-ions that a name gives are not always drawn.

What follows are molecules tested against T1, HCV polymerase (Hepatitis C virus genotype 1b, UniProt P26663) (assay: biochemical). Conditions: not given.
T1 construct: a region encoding NS5B (J Virol 1991 March, 65(3), 1105-13, 544 amino acids after deletion of 47 amino acids on the C-terminal); 6xHis (C); made in house; host or cells: Escherichia coli
Design: species or system HCV BK strain
How it was run: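 Recombinant HCV BK-strain NS5B (C-terminal 47 aa deleted, His6-tagged, E. coli), 0.5 μg/ml, run with 5 μg/ml in vitro-transcribed RNA template (polyU/3′X), ATP/GTP/CTP 50 μM, UTP 2 μM plus [3H]UTP, pH 7.5, 25° C, 90 min. TCA-precipitated RNA counted by scintillation; IC50 from activity with vs without compound.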

T1 sequence (P26663 2420-2963): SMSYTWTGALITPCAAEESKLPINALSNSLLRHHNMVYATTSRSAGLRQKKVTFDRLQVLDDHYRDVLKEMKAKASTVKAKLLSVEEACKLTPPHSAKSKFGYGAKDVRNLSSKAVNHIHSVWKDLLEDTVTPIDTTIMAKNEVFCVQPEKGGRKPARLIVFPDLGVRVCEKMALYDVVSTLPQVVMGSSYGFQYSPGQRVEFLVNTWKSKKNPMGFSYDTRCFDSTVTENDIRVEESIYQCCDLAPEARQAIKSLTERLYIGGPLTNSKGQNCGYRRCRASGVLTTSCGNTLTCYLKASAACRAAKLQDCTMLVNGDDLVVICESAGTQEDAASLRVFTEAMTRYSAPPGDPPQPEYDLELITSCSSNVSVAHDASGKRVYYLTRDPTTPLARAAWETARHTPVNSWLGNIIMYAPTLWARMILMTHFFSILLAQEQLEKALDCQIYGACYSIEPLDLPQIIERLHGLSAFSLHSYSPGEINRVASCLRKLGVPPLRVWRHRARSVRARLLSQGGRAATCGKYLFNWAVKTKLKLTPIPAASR

SMILES | IC50 [nM]
CC(C)(NC(=O)c1ccc2c(C3CCCCC3)c3n(c2c1)CCOc1ccccc1-3)C(=O)N1CCC(O)CC1 [Example 2-190, N-[2-(4-hydroxypiperidin-1-yl)-1,1-dimethyl-2-oxoethyl]-12-cyclohexyl-6,7-dihydro-5-oxa-7a-azadibenzo[a,e]azulene-9-carboxamide] | < 100
O=C(O)c1ccc2c(C3CCCCC3)c3n(c2c1)CCOc1c-3cccc1N(CCN1CCCCC1)Cc1ccccc1 [Example 2-191, 4-{N-benzyl-N-[2-(piperidin-1-yl)ethyl]amino}-12-cyclohexyl-6,7-dihydro-5-oxa-7a-azadibenzo[a,e]azulene-9-carboxylic acid dihydrochloride] | < 100
O=C(Nc1ccc(O)cc1)c1ccc2c(C3CCCCC3)c3n(c2c1)CCOc1ccccc1-3 [Example 2-192, N-(4-hydroxyphenyl)-12-cyclohexyl-6,7-dihydro-5-oxa-7a-azadibenzo[a,e]azulene-9-carboxamide] | < 100
CC(C)(NC(=O)c1ccc2c(C3CCCCC3)c3n(c2c1)CCOc1ccccc1-3)C(=O)Nc1ccc(C(N)=O)cc1 [Example 2-193, N-[1-(4-carbamoylphenylcarbamoyl)-1-methylethyl]-12-cyclohexyl-6,7-dihydro-5-oxa-7a-azadibenzo[a,e]azulene-9-carboxamide] | < 100
CN(C)C(=O)c1ccc(NC(=O)C(C)(C)NC(=O)c2ccc3c(C4CCCCC4)c4n(c3c2)CCOc2ccccc2-4)cc1 [Example 2-194, N-[1-(4-dimethylcarbamoylphenylcarbamoyl)-1-methylethyl]-12-cyclohexyl-6,7-dihydro-5-oxa-7a-azadibenzo[a,e]azulene-9-carboxamide] | < 100
CC(C)(NC(=O)c1ccc2c(C3CCCCC3)c3n(c2c1)CCOc1ccccc1-3)C(=O)Nc1ccc(CO)cc1 [Example 2-195, N-[1-(4-hydroxymethylphenylcarbamoyl)-1-methylethyl]-12-cyclohexyl-6,7-dihydro-5-oxa-7a-azadibenzo[a,e]azulene-9-carboxamide] | < 100
COC(=O)c1ccc2nc(C(C)(C)NC(=O)c3ccc4c(C5CCCCC5)c5n(c4c3)CCOc3ccccc3-5)[nH]c2c1 [Example 2-196, methyl 2-{1-[(12-cyclohexyl-6,7-dihydro-5-oxa-7a-azadibenzo[a,e]azulene-9-carbonyl)amino]-1-methylethyl}-3H-benzimidazole-5-carboxylate] | < 100
O=C(O)c1ccc2nc(CNC(=O)c3ccc4c(C5CCCCC5)c5n(c4c3)CCOc3ccccc3-5)[nH]c2c1 [Example 2-197, 2-{[(12-cyclohexyl-6,7-dihydro-5-oxa-7a-azadibenzo[a,e]azulene-9-carbonyl)amino]methyl}-3H-benzimidazole-5-carboxylic acid] | < 100
CC(C)(NC(=O)c1ccc2c(C3CCCCC3)c3n(c2c1)CCOc1ccccc1-3)c1nc2ccccc2[nH]1 [Example 2-198, N-[1-(1H-benzimidazol-2-yl)-1-methylethyl]-12-cyclohexyl-6,7-dihydro-5-oxa-7a-azadibenzo[a,e]azulene-9-carboxamide] | < 100
CC(C)(NC(=O)c1ccc2c(C3CCCCC3)c3n(c2c1)CCOc1ccccc1-3)c1nc2cc(Cl)ccc2[nH]1 [Example 2-199, N-[1-(5-chloro-1H-benzimidazol-2-yl)-1-methylethyl]-12-cyclohexyl-6,7-dihydro-5-oxa-7a-azadibenzo[a,e]azulene-9-carboxamide] | < 100
Cc1ccc(NC(=O)C(C)(C)NC(=O)c2ccc3c(C4CCCCC4)c4n(c3c2)CCOc2ccccc2-4)cc1C(=O)O [Example 2-200, 5-{2-[(12-cyclohexyl-6,7-dihydro-5-oxa-7a-azadibenzo[a,e]azulene-9-carbonyl)amino]-2-methylpropionylamino}-2-methylbenzoic acid] | < 100
CC(C)(NC(=O)c1ccc2c(C3CCCCC3)c3n(c2c1)CCOc1ccccc1-3)C(=O)Nc1cccc(C(=O)O)c1 [Example 2-201, 3-{2-[(12-cyclohexyl-6,7-dihydro-5-oxa-7a-azadibenzo[a,e]azulene-9-carbonyl)amino]-2-methylpropionylamino}benzoic acid] | < 100
CC(C)(NC(=O)c1ccc2c(C3CCCCC3)c3n(c2c1)CCOc1ccccc1-3)C(=O)Nc1ccc(O)cc1 [Example 2-202, N-[1-(4-hydroxyphenylcarbamoyl)-1-methylethyl]-12-cyclohexyl-6,7-dihydro-5-oxa-7a-azadibenzo[a,e]azulene-9-carboxamide] | < 100
CC(C)(NC(=O)c1ccc2c(C3CCCCC3)c3n(c2c1)CCOc1ccccc1-3)C(=O)NCCc1ccc(O)cc1 [Example 2-203, N-{1-[2-(4-hydroxyphenyl)ethylcarbamoyl]-1-methylethyl}-12-cyclohexyl-6,7-dihydro-5-oxa-7a-azadibenzo[a,e]azulene-9-carboxamide] | < 100
CC(C)(NC(=O)c1ccc2c(C3CCCCC3)c3n(c2c1)CCOc1ccccc1-3)C(=O)Nc1ccc(F)cc1 [Example 2-204, N-[1-(4-fluorophenylcarbamoyl)-1-methylethyl]-12-cyclohexyl-6,7-dihydro-5-oxa-7a-azadibenzo[a,e]azulene-9-carboxamide] | < 100
O=C(NCCc1ccc(O)cc1)c1ccc2c(C3CCCCC3)c3n(c2c1)CCOc1ccccc1-3 [Example 2-205, N-[2-(4-hydroxyphenyl)ethyl]-12-cyclohexyl-6,7-dihydro-5-oxa-7a-azadibenzo[a,e]azulene-9-carboxamide] | < 100
O=C(NCC1(O)CCCCC1)c1ccc2c(C3CCCCC3)c3n(c2c1)CCOc1ccccc1-3 [Example 2-206, N-(1-hydroxycyclohexylmethyl)-12-cyclohexyl-6,7-dihydro-5-oxa-7a-azadibenzo[a,e]azulene-9-carboxamide] | 100 to 1000
NC(=O)[C@H](Cc1ccc(O)cc1)NC(=O)c1ccc2c(C3CCCCC3)c3n(c2c1)CCOc1ccccc1-3 [Example 2-207, N—[(S)-1-carbamoyl-2-(4-hydroxyphenyl)ethyl]-12-cyclohexyl-6,7-dihydro-5-oxa-7a-azadibenzo[a,e]azulene-9-carboxamide] | < 100
CC(C)(NC(=O)c1ccc2c(C3CCCCC3)c3n(c2c1)CCOc1ccccc1-3)C1CCC(C(=O)O)CC1 (centres unmarked) [Example 2-208, 4-{1-[(12-cyclohexyl-6,7-dihydro-5-oxa-7a-azadibenzo[a,e]azulene-9-carbonyl)amino]-1-methylethyl}cyclohexanecarboxylic acid] | 100 to 1000
COC(=O)c1[nH]c(C(C)(C)NC(=O)c2ccc3c(C4CCCCC4)c4n(c3c2)CCOc2ccccc2-4)nc1C [Example 2-209, methyl 2-{1-[(12-cyclohexyl-6,7-dihydro-5-oxa-7a-azadibenzo[a,e]azulene-9-carbonyl)amino]-1-methylethyl]-5-methyl-3H-imidazole-4-carboxylate] | < 100
CC(C)(CNC(=O)c1ccc(C(=O)O)cc1)NC(=O)c1ccc2c(C3CCCCC3)c3n(c2c1)CCOc1ccccc1-3 [Example 2-211, N-{2-[(12-cyclohexyl-6,7-dihydro-5-oxa-7a-azadibenzo[a,e]azulene-9-carbonyl)amino]-2-methylpropyl}terephthalamic acid] | 100 to 1000
COC(=O)c1ccc(C(=O)NCC(C)(C)NC(=O)c2ccc3c(C4CCCCC4)c4n(c3c2)CCOc2ccccc2-4)cc1 [Example 2-212, methyl N-{2-[(12-cyclohexyl-6,7-dihydro-5-oxa-7a-azadibenzo[a,e]azulene-9-carbonyl)amino]-2-methylpropyl}-terephthalamate] | 100 to 1000
CN(C)Cc1ccc(NC(=O)C(C)(C)NC(=O)c2ccc3c(C4CCCCC4)c4n(c3c2)CCOc2ccccc2-4)cc1 [Example 2-213, N-[1-(4-dimethylaminomethylphenylcarbamoyl)-1-methylethyl]-12-cyclohexyl-6,7-dihydro-5-oxa-7a-azadibenzo[a,e]azulene-9-carboxamide] | < 100
CC(C)(NC(=O)c1ccc2c(C3CCCCC3)c3n(c2c1)CCOc1ccccc1-3)c1nc2cc(C(=O)O)ccc2[nH]1 [Example 2-214, 2-{1-[(12-cyclohexyl-6,7-dihydro-5-oxa-7a-azadibenzo[a,e]azulene-9-carbonyl)amino]-1-methylethyl}-1H-benzimidazole-5-carboxylic acid] | < 100
CC(C)(Cc1ccc(C(=O)O)cc1)NC(=O)c1ccc2c(C3CCCCC3)c3n(c2c1)CCOc1ccccc1-3 [Example 2-216, 4-{2-[(12-cyclohexyl-6,7-dihydro-5-oxa-7a-azadibenzo[a,e]azulene-9-carbonyl)amino]-2-methylpropyl}benzoic acid] | 100 to 1000
O=C(N[C@H](CO)Cc1ccc(O)cc1)c1ccc2c(C3CCCCC3)c3n(c2c1)CCOc1ccccc1-3 [Example 2-217, N—[(S)-1-hydroxymethyl-2-(4-hydroxyphenyl)ethyl]-12-cyclohexyl-6,7-dihydro-5-oxa-7a-azadibenzo[a,e]azulene-9-carboxamide] | < 100
COC(=O)[C@H](Cc1ccc(OC)cc1)NC(=O)c1ccc2c(C3CCCCC3)c3n(c2c1)CCOc1ccccc1-3 [Example 2-218, methyl (S)-2-[(12-cyclohexyl-6,7-dihydro-5-oxa-7a-azadibenzo[a,e]azulene-9-carbonyl)amino]-3-(4-methoxyphenyl)propionate] | < 100
COc1ccc(CC(C)(C)NC(=O)c2ccc3c(C4CCCCC4)c4n(c3c2)CCOc2ccccc2-4)cc1 [Example 2-219, N-[2-(4-methoxyphenyl)-1,1-dimethylethyl]-12-cyclohexyl-6,7-dihydro-5-oxa-7a-azadibenzo[a,e]azulene-9-carboxamide] | 100 to 1000

Same assay, conditions: read-out: HCV polymerase inhibitory activity IC50; 25° C., 90 min; [5,6-3H]UTP incorporation into RNA

SMILES | IC50 [nM]
COC(=O)C(Cc1c[nH]c2ccc(O)cc12)NC(=O)c1ccc2c(C3CCCCC3)c3n(c2c1)CCOc1ccccc1-3 (centres unmarked) [Example 2-210] | < 100
